In patent publication US8460718B2, “Synergistic compositions and methods” (LycoRed Ltd., priority 2011, dated 2013):

Assays:
[1] = system: MDA-MB-231 human breast cancer; conditions: MDA-MB-231, 16 μM; cited from earlier work
[2] = in animals; cited from earlier work
[3] = system: LNCaP, human androgen dependent prostate cancer cells; test: LNCaP cell proliferation, [3H]thymidine incorporation assay; type: cell-based; conditions: LNCaP cells stimulated by 1 nM DHT, treated 3 days; for cell growth inhibition (thymidine incorporation), phytosterol alone: phytosterol alone 0-50 μM
Description: In these experiments, LNCaP cells were preincubated for 24 hours in 0.5% serum and then growth (quantified by measuring thymidine incorporation) was stimulated by 1 nM DHT. Stimulated cells were treated for 3 days with the indicated concentration of the phytosterols alone, or in combination with 0.4 μM lycopene. Data presented are the mean±SE of 2-3 independent experiments performed in quadruplicates.
Cell culture and cell proliferation assay: LNCaP, human androgen dependent prostate cancer cells, were purchased from American Type Culture Collection (Rockwell, Md.). Cells were grown in RPMI1640 containing 0.6 μg/ml insulin. All culture media were supplemented with L-glutamine (2 mM), penicillin (100 U/ml), streptomycin (0.1 mg/ml), nystatin (12.5 μg/ml), and 10% FCS. Cells were seeded in medium containing 3% FCS or 3% DCC phenol red free medium and 10 mM HEPES onto 96- and 6-multiwell plates (4-7×10^3 and 1.7×10^5 cells/well, respectively). One day later, the medium was changed to 0.5% FCS or 0% medium for an additional one day of incubation. Then the medium was changed to one containing the micronutrients (phytosterols, carotenoids, phospholipids, etc.) at the indicated concentrations and incubation was continued for 1-3 days. In order to assure that the agent was continuously present during prolonged incubation, the medium was replaced daily with one containing fresh carotenoids. Lycopene was dissolved in tetrahydrofuran at a concentration of 2 mM and stored at −20° C. Immediately before the experiment, the stock solution was added to the cell culture medium. The final concentration of lycopene in the medium was measured by spectrophotometry after extraction in 2-propanol and n-hexane:dichloromethane [3H]thymidine incorporation assay was performed in 96-multiwell plates. Cells were incubated with 1.25-2.50 uCi/well of [3H]thymidine (specific radioactivity 5 mCi/mmol in μCi/well) for one to four hours. The nucleotide incorporation was stopped by addition of unlabeled thymidine (0.5 μmol). The cells were then trypsinized and collected on a glass-fiber filter using a cell harvester (Inotech). Radioactivity was determined by a radioactive image analyzer (BAS 1000, Fuji).
All procedures were performed under dim light in order to prevent carotenoid degradation.
FIGS. 1A-1E. LNCaP cell were preincubated for 24 hours in 0.5% serum and then growth (thymidine incorporation) was stimulated by 1 nM DHT. Stimulated cells were treated for 3 days with the indicated concentrations of the phytosterols alone, or in combination with 0.4 μM Lycopene. Data presented are the mean±SE of 2-3 independent experiments performed in quadruplicates.

[4] = in vivo; cited from earlier work
HT-29 human colon cancer = conditions: HT-29, 16 μM; cited from earlier work
[5] = system: phorbol esters (PMA)-stimulated macrophages (RAW 264.7 cells); conditions: cited from earlier work
[6] = system: LNCaP human prostate cancer; conditions: 16 μM; cited from earlier work
[7] = system: MCF-7 human breast cancer; conditions: MCF-7, 0.001 to 150 μM; cited from earlier work
[8] = RAW 264.7, effects 3-6 hours after preincubation

SMILES: CC(C)[C@H](C)CC[C@@H](C)[C@H]1CC[C@H]2[C@@H]3CC=C4C[C@@H](O)CC[C@]4(C)[C@H]3CC[C@]12C [Campesterol]
- growth [1]: unchanged
- intestinal absorption [2]: better absorbed than β-sitosterol
- cell growth inhibition (thymidine incorporation), phytosterol alone [3]: did not have any effect on cell growth inhibition

SMILES: CC[C@H](/C=C/[C@@H](C)[C@H]1CC[C@H]2[C@@H]3CC=C4C[C@@H](O)CC[C@]4(C)[C@H]3CC[C@]12C)C(C)C [Stigmasterol]
- intestinal absorption [2]: only absorbed minimally
- cell growth inhibition (thymidine incorporation), phytosterol alone [3]: did not have any effect on cell growth inhibition

SMILES: CC(C)CCC[C@@H](C)[C@H]1CC[C@H]2[C@@H]3CC=C4C[C@@H](O)CC[C@]4(C)[C@H]3CC[C@]12C [cholesterol, reference compound]
- absorption [4]: 35-70%
- growth [1]: unchanged

SMILES: CC(C)=CCC/C(C)=C/C=C/C(C)=C/C=C/C(C)=C/C=C/C=C(C)/C=C/C=C(C)/C=C/C=C(\C)CCC=C(C)C [lycopene]
- cell growth inhibition (thymidine incorporation), lycopene alone ([3]; 0.4 μM lycopene alone): did not inhibit proliferation

SMILES: CC[C@H](CC[C@@H](C)[C@H]1CC[C@H]2[C@@H]3CC=C4C[C@@H](O)CC[C@]4(C)[C@H]3CC[C@]12C)C(C)C [β-sitosterol]
- growth (HT-29 human colon cancer): inhibition
- H2O2 production induced by PMA [5, 8]: decrease
- O2(−) production induced by PMA [5, 8]: decrease
- NO release induced by PMA ([5]; RAW 264.7): reduced
- inducible nitric oxide synthase (iNOS) levels ([5]; RAW 264.7): impairment
- PSA levels [6]: reduced PSA
- growth [6]: inhibition;
- growth [1]: inhibition
- cell growth inhibition (thymidine incorporation), phytosterol alone [3]: inhibited prostate cancer cell proliferation in a dose dependent manner
- growth [7]: increase
